Columns and labels:
Assay in all cases: relative viability (nuclei count vs DMSO), 5 days (fraction); higher = more cells survive
Entinostat + Crizotinib = compound: Nc1ccccc1NC(=O)c1ccc(CNC(=O)OCc2cccnc2)cc1 [Entinostat] + C[C@@H](Oc1cc(-c2cnn(C3CCNCC3)c2)cnc1N)c1c(Cl)ccc(F)c1Cl [Crizotinib] (partner 1 µM)
Outline: (§1)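 The day after seeding in 1536-well plates, lung cancer cell lines were treated by pin tool with a single drug, or with a fixed anchor-drug dose together with five library-drug doses (not always all listed) in √10 steps. After 5 days, a combined fix-and-stain solution (final 0.05% Triton X-100, 1% formaldehyde, 1 ug/ml Hoechst) was added. Nuclei counted on 4× images gave relative viability as treated counts over vehicle counts, reported as the median of duplicate plates.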

Entinostat + OSI-027 = compound: Nc1ccccc1NC(=O)c1ccc(CNC(=O)OCc2cccnc2)cc1 [Entinostat] + COc1cccc2cc(-c3nc([C@H]4CC[C@H](C(=O)O)CC4)n4ncnc(N)c34)[nH]c12 [OSI-027] (partner 0.5 µM)
Outline: as §1

[1] = compound: C1COCCN1C2=NC(=NC3=C2OC4=C3C=CC=N4)C5=CC(=CC=C5)NC(=O)C6=CN=C(C=C6)N + O=C(CCCCCCC(=O)Nc1ccccc1)NO [Vorinostat] (partner 1 µM)
Outline: as §1

NCI-H1651
relative viability (Entinostat + Crizotinib; first compound 0.02 µM): 0.877
relative viability (Entinostat + Crizotinib; first compound 0.06325 µM): 0.9
relative viability (Entinostat + Crizotinib; first compound 0.2 µM): 0.878
relative viability (Entinostat + Crizotinib; first compound 0.6325 µM): 0.807
relative viability (Entinostat + Crizotinib; first compound 2 µM): 0.721
relative viability (Entinostat + OSI-027; first compound 0.02 µM): 0.747
relative viability (Entinostat + OSI-027; first compound 0.06325 µM): 0.653
relative viability (Entinostat + OSI-027; first compound 0.2 µM): 0.71
relative viability (Entinostat + OSI-027; first compound 0.6325 µM): 0.608
relative viability (Entinostat + OSI-027; first compound 2 µM): 0.542
relative viability ([1]; first compound 0.02 µM): 0.382
relative viability ([1]; first compound 0.06325 µM): 0.595
relative viability ([1]; first compound 0.2 µM): 0.563
relative viability ([1]; first compound 0.6325 µM): 0.537
relative viability ([1]; first compound 2 µM): 0.529

NCI-H838
relative viability (Entinostat + Crizotinib; first compound 0.02 µM): 0.995
relative viability (Entinostat + Crizotinib; first compound 0.06325 µM): 0.818
relative viability (Entinostat + Crizotinib; first compound 0.2 µM): 0.949
relative viability (Entinostat + Crizotinib; first compound 0.6325 µM): 0.536
relative viability (Entinostat + Crizotinib; first compound 2 µM): 0.229
relative viability (Entinostat + OSI-027; first compound 0.02 µM): 0.46
relative viability (Entinostat + OSI-027; first compound 0.06325 µM): 0.489
relative viability (Entinostat + OSI-027; first compound 0.2 µM): 0.474
relative viability (Entinostat + OSI-027; first compound 0.6325 µM): 0.487
relative viability (Entinostat + OSI-027; first compound 2 µM): 0.318
relative viability ([1]; first compound 0.02 µM): 0.725
relative viability ([1]; first compound 0.06325 µM): 0.754
relative viability ([1]; first compound 0.2 µM): 0.676
relative viability ([1]; first compound 0.6325 µM): 0.646
relative viability ([1]; first compound 2 µM): 0.5

NCI-H1915
relative viability (Entinostat + Crizotinib; first compound 0.02 µM): 0.854
relative viability (Entinostat + Crizotinib; first compound 0.06325 µM): 0.869
relative viability (Entinostat + Crizotinib; first compound 0.2 µM): 0.862
relative viability (Entinostat + Crizotinib; first compound 0.6325 µM): 0.739
relative viability (Entinostat + Crizotinib; first compound 2 µM): 0.328
relative viability (Entinostat + OSI-027; first compound 0.02 µM): 0.594
relative viability (Entinostat + OSI-027; first compound 0.06325 µM): 0.605
relative viability (Entinostat + OSI-027; first compound 0.2 µM): 0.58
relative viability (Entinostat + OSI-027; first compound 0.6325 µM): 0.283
relative viability (Entinostat + OSI-027; first compound 2 µM): 0.222
relative viability ([1]; first compound 0.02 µM): 0.539
relative viability ([1]; first compound 0.06325 µM): 0.572
relative viability ([1]; first compound 0.2 µM): 0.536
relative viability ([1]; first compound 0.6325 µM): 0.536
relative viability ([1]; first compound 2 µM): 0.397

COR-L23
relative viability (Entinostat + Crizotinib; first compound 0.02 µM): 0.508
relative viability (Entinostat + Crizotinib; first compound 0.06325 µM): 0.524
relative viability (Entinostat + Crizotinib; first compound 0.2 µM): 0.513
relative viability (Entinostat + Crizotinib; first compound 0.6325 µM): 0.205
relative viability (Entinostat + Crizotinib; first compound 2 µM): 0.0924
relative viability (Entinostat + OSI-027; first compound 0.02 µM): 0.67
relative viability (Entinostat + OSI-027; first compound 0.06325 µM): 0.599
relative viability (Entinostat + OSI-027; first compound 0.2 µM): 0.621
relative viability (Entinostat + OSI-027; first compound 0.6325 µM): 0.291
relative viability (Entinostat + OSI-027; first compound 2 µM): 0.264
relative viability ([1]; first compound 0.02 µM): 0.517
relative viability ([1]; first compound 0.06325 µM): 0.525
relative viability ([1]; first compound 0.2 µM): 0.458
relative viability ([1]; first compound 0.6325 µM): 0.403
relative viability ([1]; first compound 2 µM): 0.381

ChaGo-K-1
relative viability (Entinostat + Crizotinib; first compound 0.02 µM): 1.18
relative viability (Entinostat + Crizotinib; first compound 0.06325 µM): 1.19
relative viability (Entinostat + Crizotinib; first compound 0.2 µM): 0.967
relative viability (Entinostat + Crizotinib; first compound 0.6325 µM): 0.966
relative viability (Entinostat + Crizotinib; first compound 2 µM): 0.631
relative viability (Entinostat + OSI-027; first compound 0.02 µM): 0.606
relative viability (Entinostat + OSI-027; first compound 0.06325 µM): 0.513
relative viability (Entinostat + OSI-027; first compound 0.2 µM): 0.56
relative viability (Entinostat + OSI-027; first compound 0.6325 µM): 0.436
relative viability (Entinostat + OSI-027; first compound 2 µM): 0.378
relative viability ([1]; first compound 0.02 µM): 0.746
relative viability ([1]; first compound 0.06325 µM): 0.829
relative viability ([1]; first compound 0.2 µM): 0.73
relative viability ([1]; first compound 0.6325 µM): 0.67
relative viability ([1]; first compound 2 µM): 0.515

HOP-62
relative viability (Entinostat + Crizotinib; first compound 0.02 µM): 0.951
relative viability (Entinostat + Crizotinib; first compound 0.06325 µM): 1.03
relative viability (Entinostat + Crizotinib; first compound 0.2 µM): 0.812
relative viability (Entinostat + Crizotinib; first compound 0.6325 µM): 0.618
relative viability (Entinostat + Crizotinib; first compound 2 µM): 0.288
relative viability (Entinostat + OSI-027; first compound 0.02 µM): 0.801
relative viability (Entinostat + OSI-027; first compound 0.06325 µM): 0.882
relative viability (Entinostat + OSI-027; first compound 0.2 µM): 0.85
relative viability (Entinostat + OSI-027; first compound 0.6325 µM): 0.49
relative viability (Entinostat + OSI-027; first compound 2 µM): 0.248
relative viability ([1]; first compound 0.02 µM): 0.753
relative viability ([1]; first compound 0.06325 µM): 0.768
relative viability ([1]; first compound 0.2 µM): 0.674
relative viability ([1]; first compound 0.6325 µM): 0.58
relative viability ([1]; first compound 2 µM): 0.373

NCI-H1975
relative viability (Entinostat + Crizotinib; first compound 0.02 µM): 0.762
relative viability (Entinostat + Crizotinib; first compound 0.06325 µM): 0.778
relative viability (Entinostat + Crizotinib; first compound 0.2 µM): 0.564
relative viability (Entinostat + Crizotinib; first compound 0.6325 µM): 0.278
relative viability (Entinostat + Crizotinib; first compound 2 µM): 0.201
relative viability (Entinostat + OSI-027; first compound 0.02 µM): 0.532
relative viability (Entinostat + OSI-027; first compound 0.06325 µM): 0.526
relative viability (Entinostat + OSI-027; first compound 0.2 µM): 0.467
relative viability (Entinostat + OSI-027; first compound 0.6325 µM): 0.264
relative viability (Entinostat + OSI-027; first compound 2 µM): 0.209
relative viability ([1]; first compound 0.02 µM): 0.675
relative viability ([1]; first compound 0.06325 µM): 0.689
relative viability ([1]; first compound 0.2 µM): 0.631
relative viability ([1]; first compound 0.6325 µM): 0.624
relative viability ([1]; first compound 2 µM): 0.389

BEN
relative viability (Entinostat + Crizotinib; first compound 0.02 µM): 0.985
relative viability (Entinostat + Crizotinib; first compound 0.06325 µM): 0.884
relative viability (Entinostat + Crizotinib; first compound 0.2 µM): 0.997
relative viability (Entinostat + Crizotinib; first compound 0.6325 µM): 0.631
relative viability (Entinostat + Crizotinib; first compound 2 µM): 0.31
relative viability (Entinostat + OSI-027; first compound 0.02 µM): 0.271
relative viability (Entinostat + OSI-027; first compound 0.06325 µM): 0.353
relative viability (Entinostat + OSI-027; first compound 0.2 µM): 0.323
relative viability (Entinostat + OSI-027; first compound 0.6325 µM): 0.302
relative viability (Entinostat + OSI-027; first compound 2 µM): 0.217
relative viability ([1]; first compound 0.02 µM): 0.545
relative viability ([1]; first compound 0.06325 µM): 0.556
relative viability ([1]; first compound 0.2 µM): 0.589
relative viability ([1]; first compound 0.6325 µM): 0.619
relative viability ([1]; first compound 2 µM): 0.448

EMC-BAC-2
relative viability (Entinostat + Crizotinib; first compound 0.02 µM): 0.812
relative viability (Entinostat + Crizotinib; first compound 0.06325 µM): 0.702
relative viability (Entinostat + Crizotinib; first compound 0.2 µM): 0.708
relative viability (Entinostat + Crizotinib; first compound 0.6325 µM): 0.522
relative viability (Entinostat + Crizotinib; first compound 2 µM): 0.368
relative viability (Entinostat + OSI-027; first compound 0.02 µM): 0.376
relative viability (Entinostat + OSI-027; first compound 0.06325 µM): 0.423
relative viability (Entinostat + OSI-027; first compound 0.2 µM): 0.368
relative viability (Entinostat + OSI-027; first compound 0.6325 µM): 0.305
relative viability (Entinostat + OSI-027; first compound 2 µM): 0.256
relative viability ([1]; first compound 0.02 µM): 0.533
relative viability ([1]; first compound 0.06325 µM): 0.376
relative viability ([1]; first compound 0.2 µM): 0.329
relative viability ([1]; first compound 0.6325 µM): 0.413
relative viability ([1]; first compound 2 µM): 0.419

— the supplement of paper PMC10307832
